{"source": "patent US20210300926A1", "about": "“NEW BETA-LACTAMASE INHIBITORS TARGETING GRAM NEGATIVE BACTERIA” (priority 2017, published 2021)", "key": {"[1]": {"test_system": "E. coli Top10 producing CTX-M15", "assay": "MIC determination by microdilution, E. coli Top10 producing CTX-M15", "type": "cell-based, Escherichia coli", "conditions": "Escherichia coli, read-out: MIC of β-lactam, inhibitor None", "source_text": "(§1) Plasmid and strain construction. For antibiotic susceptibility testing, the R-lactamase genes were cloned into the vector pTRC-99k, which is a derivative of pTRC99a (Pharmacia) obtained by replacing the β-lactamase resistance gene by a kanamycin resistance gene (Km, lacl, pTRC promoter, oriVcolEl; D. Mengin-Lecreulx, unpublished). Recombinant plasmids were introduced by electrotransformation into Escherichia coli Top10. For β-lactamase production, fragments of the β-lactamase genes encoding soluble enzymes, i.e. devoid of the signal peptides, were cloned into the vector pET-TEV generating translational fusions with a vector-encoded N-terminal 6×His Tag followed by a TEV cleavage site ([…]) (1).\n(§2) MIC determination. MICs of β-lactams were determined by the microdilution method in MH broth according to Clinical and Laboratory Standards Institute (CLSI) recommendations (12). Diazabicyclooctane were used at a fixed concentration of 15 μM (4 μg/ml for avibactam). Clavulanate was tested at 4 μg/ml. IPTG (500 μM) was added to the microdilution plates to induce production of the -lactamase. The precultures were grown in BHI broth containing IPTG (500 μM) and kanamycin (50 μg/ml) for plasmid maintenance. Reported MICs are the medians from five biological repeats obtained in two independent experiments."}, "[2]": {"test_system": "E. coli Top10", "assay": "MIC determination by microdilution, E. coli Top10 without β-lactamase (None)", "type": "cell-based", "source_text": "as §1, §2"}, "[3]": {"target": "T1, TEM-1 (Escherichia coli, UniProt P62593)", "T1 construct": "fragments of the β-lactamase genes encoding soluble enzymes, i.e. devoid of the signal peptides; made in house; host or cells: E. coli BL21 (DE3)", "T1 sequence (P62593 24-286 limits assumed)": "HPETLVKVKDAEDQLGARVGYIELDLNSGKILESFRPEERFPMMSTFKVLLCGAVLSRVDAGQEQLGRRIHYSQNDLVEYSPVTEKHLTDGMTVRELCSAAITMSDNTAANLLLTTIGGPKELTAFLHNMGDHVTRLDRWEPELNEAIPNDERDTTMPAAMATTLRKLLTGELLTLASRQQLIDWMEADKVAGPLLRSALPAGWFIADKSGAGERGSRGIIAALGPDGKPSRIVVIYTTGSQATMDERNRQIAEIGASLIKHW", "assay": "Kinetic parameters of β-lactamase carbamoylation/de-carbamoylation (nitrocefin), TEM-1", "type": "biochemical", "conditions": "20° C., nitrocefin 100 μM, MES pH 6.4", "source_text": "as §1\n(§3) Production and purification of β-lactamases. E. coli BL21 (DE3) harboring recombinant plasmids were grown in brain heart infusion (BHI) broth supplemented with kanamycin (50 μg/ml) at 37° C. under vigorous shaking until the optical density at 600 nm (OD600) reached 0.8. Isopropyl β-D-1-thiogalactopyranoside IPTG (0.5 mM) was added and incubation was continued at 16° C. for 18 h. Bacteria were harvested by centrifugation, re-suspended in 25 mM Tris-HCl (pH 7.5) containing 300 mM NaCl (buffer A) and lysed by sonication. The enzymes were purified from clarified lysates by affinity chromatography (NiNTA agarose, Sigma-Aldrich) and size exclusion chromatography in buffer A (Superdex 200 HL26/60, Amersham Pharmacia Biotech). Protein concentration was determined by the Biorad protein assay using bovine serum albumin as a standard.\n(§4) Determination of kinetic parameters. […] Briefly, the initial velocity (vi) was determined by spectrophotometry for various concentrations of β-lactams [S] and a fixed concentration of β-lactamase [E]. The values of vi were plotted as a function of [S]. The kinetic constants Km and kcat were determined by fitting the equation […] to the resulting curve. The molecular extinction coefficient was 14,600 M^−1 cm^−1 at 486 nm for nitrocefin. […] Kinetics constants were deduced from a minimum of 6 progress curves obtained in a minimum of two independent experiments."}, "[4]": {"target": "T2, KPC-2 (Klebsiella pneumoniae, UniProt Q9F663)", "T2 construct": "fragments of the β-lactamase genes encoding soluble enzymes, i.e. devoid of the signal peptides; 6xHis tag followed by TEV cleavage site ([…]) (N); made in house; host or cells: E. coli BL21 (DE3)", "T2 sequence (Q9F663 25-293 limits assumed)": "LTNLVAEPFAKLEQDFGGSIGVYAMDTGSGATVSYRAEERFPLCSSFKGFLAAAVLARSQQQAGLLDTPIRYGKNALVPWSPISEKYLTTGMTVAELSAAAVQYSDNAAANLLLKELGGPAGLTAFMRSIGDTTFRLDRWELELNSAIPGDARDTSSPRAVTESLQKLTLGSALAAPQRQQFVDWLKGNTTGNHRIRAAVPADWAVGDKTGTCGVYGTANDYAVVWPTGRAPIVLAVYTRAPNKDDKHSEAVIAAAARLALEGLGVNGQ", "assay": "Kinetic parameters of β-lactamase carbamoylation/de-carbamoylation (nitrocefin), KPC-2", "type": "biochemical", "conditions": "for Carbamoylation efficacy of β-lactamases by diazabicyclooctanes / De-carbamoylation rate constant k−2 for β-lactamase-diazabicyclooctane adducts: KPC-2, 20° C., nitrocefin 100 μM, MES pH 6.4", "source_text": "as §1, §3, §4"}, "[5]": {"target": "T3, OXA-48 (Klebsiella pneumoniae, UniProt Q6XEC0)", "T3 construct": "fragments of the β-lactamase genes encoding soluble enzymes, i.e. devoid of the signal peptides; 6xHis tag followed by TEV cleavage site ([…]) (N); made in house; host or cells: E. coli BL21 (DE3)", "T3 sequence (Q6XEC0 23-265 limits assumed)": "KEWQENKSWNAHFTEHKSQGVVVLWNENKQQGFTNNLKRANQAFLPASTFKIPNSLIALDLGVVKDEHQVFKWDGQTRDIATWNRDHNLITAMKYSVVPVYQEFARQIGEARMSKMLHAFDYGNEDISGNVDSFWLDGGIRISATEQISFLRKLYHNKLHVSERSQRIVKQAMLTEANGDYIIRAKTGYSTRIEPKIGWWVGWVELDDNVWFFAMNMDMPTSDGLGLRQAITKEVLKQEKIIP", "assay": "Kinetic parameters of β-lactamase carbamoylation/de-carbamoylation (nitrocefin), OXA-48", "type": "biochemical", "source_text": "as §1, §3, §4"}, "[6]": {"target": "T4, AmpCEclo (Enterobacter cloacae, UniProt P05364)", "T4 construct": "fragments of the β-lactamase genes encoding soluble enzymes, i.e. devoid of the signal peptides; 6xHis tag followed by TEV cleavage site ([…]) (N); made in house; host or cells: E. coli BL21 (DE3)", "T4 sequence (P05364 21-381)": "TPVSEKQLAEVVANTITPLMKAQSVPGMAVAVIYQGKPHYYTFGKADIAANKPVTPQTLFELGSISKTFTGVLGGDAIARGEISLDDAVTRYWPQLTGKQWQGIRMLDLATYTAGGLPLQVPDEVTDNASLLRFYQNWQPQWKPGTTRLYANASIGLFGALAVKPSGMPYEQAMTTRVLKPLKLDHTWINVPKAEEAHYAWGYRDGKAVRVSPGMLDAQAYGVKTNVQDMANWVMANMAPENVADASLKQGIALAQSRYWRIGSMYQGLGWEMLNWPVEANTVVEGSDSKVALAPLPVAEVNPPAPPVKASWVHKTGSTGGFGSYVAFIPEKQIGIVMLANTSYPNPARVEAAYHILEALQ", "type": "biochemical", "conditions": "for Carbamoylation efficacy of β-lactamases by diazabicyclooctanes / De-carbamoylation rate constant k−2 for β-lactamase-diazabicyclooctane adducts: AmpCEclo, 20° C., nitrocefin 100 μM, MES pH 6.4", "protocol": "as §3, §4"}, "[7]": {"target": "T5, CTX-M-15 (Escherichia coli, UniProt Q9EXV5)", "T5 construct": "fragments of the β-lactamase genes encoding soluble enzymes, i.e. devoid of the signal peptides; made in house; host or cells: E. coli BL21 (DE3)", "T5 sequence (Q9EXV5 entry or part of it)": "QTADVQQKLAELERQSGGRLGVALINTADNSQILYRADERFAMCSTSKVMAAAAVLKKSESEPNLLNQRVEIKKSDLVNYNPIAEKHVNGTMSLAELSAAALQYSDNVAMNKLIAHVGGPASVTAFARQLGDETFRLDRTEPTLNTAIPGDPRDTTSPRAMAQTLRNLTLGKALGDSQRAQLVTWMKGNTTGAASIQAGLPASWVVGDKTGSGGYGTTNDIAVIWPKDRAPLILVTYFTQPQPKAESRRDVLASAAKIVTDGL", "assay": "Kinetic parameters of β-lactamase carbamoylation/de-carbamoylation (nitrocefin), CTX-M-15", "type": "biochemical", "conditions": "for Carbamoylation efficacy of β-lactamases by diazabicyclooctanes / De-carbamoylation rate constant k−2 for β-lactamase-diazabicyclooctane adducts: CTX-M-15, 20° C., nitrocefin 100 μM, MES pH 6.4", "source_text": "as §1, §3, §4"}, "[8]": {"test_system": "E. coli Top10 producing AmpCEcl", "assay": "MIC determination by microdilution, E. coli Top10 producing AmpCEcl", "type": "cell-based", "conditions": "Escherichia coli, read-out: MIC of β-lactam, inhibitor None", "source_text": "as §1, §2"}, "[9]": {"conditions": "OXA-48, 20° C., nitrocefin 100 μM, MES pH 6.4, NA = no inhibition at 100 μM"}}, "note": "Like-named read-outs stand apart in the source and are kept apart here."}
{"smiles": "CC1(C)S[C@@H]2[C@H](NC(=O)[C@H](N)c3ccc(O)cc3)C(=O)N2[C@H]1C(=O)O", "note": "[Amoxicillin, reference compound]", "values": [{"measurement": "MIC", "setting": "[1]", "value": 2050, "unit": "µg/mL"}, {"measurement": "MIC", "setting": "[2]; Escherichia coli, TOP10, read-out: MIC of β-lactam, inhibitor None", "value": 4, "unit": "µg/mL"}]}
{"smiles": "NC(=O)[C@@H]1CC[C@@H]2CN1C(=O)N2OS(=O)(=O)O", "note": "[Avibactam, reference compound]", "values": [{"measurement": "Carbamoylation efficacy of β-lactamases by diazabicyclooctanes", "setting": "[3]", "value": "(8.8 ± 0.2) × 10^4 M^−1 s^−1"}, {"measurement": "De-carbamoylation rate constant k−2 for β-lactamase-diazabicyclooctane adducts", "setting": "[3]", "value": "(1.3 ± 0.1) × 10^−3 s−1"}, {"measurement": "Carbamoylation efficacy of β-lactamases by diazabicyclooctanes", "setting": "[4]", "value": "(2.6 ± 0.1) × 10^4 M^−1 s^−1"}, {"measurement": "De-carbamoylation rate constant k−2 for β-lactamase-diazabicyclooctane adducts", "setting": "[4]", "value": "(4.0 ± 0.3) × 10^−3 s−1"}, {"measurement": "inhibition of β-lactamase OXA-48 (in words)", "setting": "[5]", "value": "poorly inhibited"}, {"measurement": "Carbamoylation efficacy of β-lactamases by diazabicyclooctanes", "setting": "[5]; [9]", "value": "(9.8 ± 0.6) × 10^2 M^−1 s^−1"}, {"measurement": "De-carbamoylation rate constant k−2 for β-lactamase-diazabicyclooctane adducts", "setting": "[5]; [9]", "value": "(2.7 ± 0.1 ) × 10^−3 s−1"}, {"measurement": "inhibition of β-lactamase AmpClo (in words)", "setting": "[6]", "value": "poorly inhibited"}, {"measurement": "Carbamoylation efficacy of β-lactamases by diazabicyclooctanes", "setting": "[6]", "value": "(1.8 ± 0.1) × 10^4 M^−1 s^−1"}, {"measurement": "De-carbamoylation rate constant k−2 for β-lactamase-diazabicyclooctane adducts", "setting": "[6]", "value": "(1.8 ± 0.2) × 10^−3 s−1"}, {"measurement": "Carbamoylation efficacy of β-lactamases by diazabicyclooctanes", "setting": "[7]", "value": "(1.3 ± 0.1) × 10^5 M^−1 s^−1"}, {"measurement": "De-carbamoylation rate constant k−2 for β-lactamase-diazabicyclooctane adducts", "setting": "[7]", "value": "(1.1 ± 0.3) × 10^−3 s−1"}]}
{"smiles": "C[C@H]1[C@H](NC(=O)/C(=N\\OC(C)(C)C(=O)O)c2csc(N)n2)C(=O)N1S(=O)(=O)O", "note": "[Aztreonam]", "values": [{"measurement": "MIC", "setting": "[2]; Escherichia coli, TOP10; read-out: MIC of β-lactam, inhibitor None", "value": 0.5, "unit": "µg/mL"}]}
{"smiles": "CO/N=C(\\C(=O)N[C@@H]1C(=O)N2C(C(=O)O)=C(COC(C)=O)CS[C@H]12)c1csc(N)n1", "note": "[Cefotaxime]", "values": [{"measurement": "MIC", "setting": "[8]", "value": 128, "unit": "µg/mL"}, {"measurement": "MIC", "setting": "[2]; Escherichia coli; Cefotaxime alone; E. coli Top10, β-lactamase None; read-out: MIC of β-lactam, inhibitor None", "value": 0.12, "unit": "µg/mL"}]}
{"smiles": "O=C1N2C[C@@H](CC[C@H]2Cn2cc(CN3CCOCC3)nn2)N1OS(=O)(=O)[O-].[Na+]", "note": "[Compound 1a.i11]", "values": [{"measurement": "Carbamoylation efficacy of β-lactamases by diazabicyclooctanes", "setting": "[3]", "value": "(1.2 ± 0.0) × 10^3 M^−1 s^−1"}, {"measurement": "De-carbamoylation rate constant k−2 for β-lactamase-diazabicyclooctane adducts", "setting": "[3]", "value": "(2.9 ± 0.3) × 10^−3 s−1"}, {"measurement": "Carbamoylation efficacy of β-lactamases by diazabicyclooctanes", "setting": "[4]", "value": "(1.9 ± 0.2) × 10^2 M^−1 s^−1"}, {"measurement": "De-carbamoylation rate constant k−2 for β-lactamase-diazabicyclooctane adducts", "setting": "[4]", "value": "(3.0 ± 0.4) × 10^−3 s−1"}, {"measurement": "activity against KPC-2 (in words)", "setting": "[4]; summary of Tables 1 and 2", "value": "displayed activity"}, {"measurement": "Carbamoylation efficacy of β-lactamases by diazabicyclooctanes", "setting": "[6]", "value": "(3.1 ± 0.3) × 10^1 M^−1 s^−1"}, {"measurement": "De-carbamoylation rate constant k−2 for β-lactamase-diazabicyclooctane adducts", "setting": "[6]", "value": "(8.9 ± 2.1) × 10^−4 s−1"}, {"measurement": "Carbamoylation efficacy of β-lactamases by diazabicyclooctanes", "setting": "[7]", "value": "(1.0 ± 0.0) × 10^2 M^−1 s^−1"}, {"measurement": "De-carbamoylation rate constant k−2 for β-lactamase-diazabicyclooctane adducts", "setting": "[7]", "value": "(4.6 ± 1.1) × 10^−4 s−1"}, {"measurement": "activity against CTX-M-15 (in words)", "setting": "[7]; summary of Tables 1 and 2", "value": "displayed activity"}]}
